GI50 and TGI data for 9 compounds are collected here from PubChem BioAssay (NCI).

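The compound was tested at five concentrations on cells cultured in 96-well plates, with a 48-hour exposure period. Abbreviation: GI50, concentration required for 50% inhibition of growth. TGI denotes the concentration required for complete inhibition of growth.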

Among the test systems are SN12C renal; T-47D breast; UACC-257 melanoma; KM12 colon; HCT-15 colon; BT-549 breast; SF-295 CNS; LOX IMVI melanoma.
Test in all cases: NCI anticancer screen, dose series, 48 h

Consider `Cc1ccsc1-c1ccc2c(c1)COC2(CCCN(C)C)c1ccc(F)cc1` (stereo not drawn), for which the GI50 with SN12C renal was 3.59 µM; with T-47D breast, 2.15 µM; in the experiment on UACC-257 melanoma, 1.94 µM; with KM12 colon, 3.13 µM; in the experiment with HCT-15 colon, 3.09 µM; with BT-549 breast it was 4.97 µM. Further, the GI50 with SF-295 CNS was 1.77 µM; in the experiment with LOX IMVI melanoma, 1.64 µM. Further, the TGI in the experiment on SN12C renal was determined as 15.5 µM; in the experiment with T-47D breast it was 6.92 µM; with UACC-257 melanoma, 3.98 µM; with KM12 colon, 10.9 µM; with HCT-15 colon, 10.9 µM; with BT-549 breast it was 18.6 µM. Also, the TGI with SF-295 CNS worked out at 3.58 µM; with LOX IMVI melanoma it was 3.04 µM.
In the case of `COc1ccc2nc3cccc([N+](=O)[O-])c3c(NC(C)CN(C)C)c2c1` (stereo not drawn), the GI50 in the experiment on SN12C renal was 2.67 µM; in the experiment on T-47D breast, 5.52 µM; with UACC-257 melanoma it was 2.67 µM; in the experiment with KM12 colon, 2.18 µM; in the experiment with HCT-15 colon, 3.71 µM; in the experiment with BT-549 breast, 2.86 µM. Besides, the GI50 with SF-295 CNS is 2.37 µM; with LOX IMVI melanoma, 1.91 µM. Further, the TGI was found to be 9.6 µM in the experiment with SN12C renal; 36 µM in the experiment with T-47D breast; 7.02 µM with UACC-257 melanoma; 6.65 µM in the experiment with KM12 colon; 6.74 µM in the experiment with BT-549 breast; 10.1 µM with SF-295 CNS. In the experiment with LOX IMVI melanoma, the TGI is 5.04 µM.
Consider `CN(C)C=Nc1c(I)cc(I)c(CCC(=O)O)c1I`, for which the GI50 in the experiment with SN12C renal, with T-47D breast, with UACC-257 melanoma, with KM12 colon, with HCT-15 colon and in the experiment on BT-549 breast was greater than 100 µM each time. The GI50 in the experiment with SF-295 CNS and in the experiment with LOX IMVI melanoma was greater than 100 µM in each case. For the same compound, the TGI with SN12C renal, with T-47D breast, in the experiment on UACC-257 melanoma, in the experiment with KM12 colon, in the experiment with HCT-15 colon and in the experiment with BT-549 breast was greater than 100 µM each time. The TGI in the experiment on SF-295 CNS and with LOX IMVI melanoma was greater than 100 µM each time.
On to `N#CC1=C(N)Oc2c(sc3c(Br)cccc23)C1c1ccc(Cl)cc1` (stereo not drawn), for which the GI50 in the experiment on SN12C renal was 2.88 µM; in the experiment with T-47D breast it was 0.464 µM; in the experiment on UACC-257 melanoma, 1.73 µM; with KM12 colon, 0.389 µM; with HCT-15 colon, 0.403 µM; in the experiment on BT-549 breast it was 0.962 µM. Also, the GI50 is 0.276 µM with SF-295 CNS and 0.579 µM with LOX IMVI melanoma. Moreover, the TGI is 17.6 µM in the experiment on SN12C renal; 11.6 µM with T-47D breast; 22.7 µM in the experiment on UACC-257 melanoma; 6.2 µM in the experiment on KM12 colon; 2.25 µM in the experiment with HCT-15 colon; 12.7 µM in the experiment with BT-549 breast. Besides, the TGI with SF-295 CNS was 0.869 µM; with LOX IMVI melanoma, 8.45 µM.
Regarding `O=[N+]([O-])c1ccc2c(c1)C(c1ccccc1Cl)=Nc1c(n[nH]c1-c1cccnc1)N2`, the GI50 was greater than 25 µM with SN12C renal; greater than 25 µM with T-47D breast; greater than 25 µM with UACC-257 melanoma; 9.41 µM with KM12 colon; greater than 25 µM in the experiment on HCT-15 colon; greater than 25 µM in the experiment on BT-549 breast. The GI50 with SF-295 CNS and in the experiment on LOX IMVI melanoma was greater than 25 µM each time. Moreover, the TGI in the experiment with SN12C renal, in the experiment with T-47D breast, in the experiment on UACC-257 melanoma, in the experiment with KM12 colon, in the experiment on HCT-15 colon and with BT-549 breast was greater than 25 µM throughout. Also, the TGI in the experiment on SF-295 CNS and in the experiment on LOX IMVI melanoma was greater than 25 µM throughout.
On to `COc1ccc(NC(=O)c2ccc(NC3=C(Cl)C(=O)N(Cc4ccccc4)C3=O)cc2)c(OC)c1`, for which the GI50 in the experiment on SN12C renal is 29.2 µM; in the experiment on T-47D breast, 38.9 µM; with UACC-257 melanoma, 47 µM; in the experiment with KM12 colon, 27.7 µM; in the experiment with HCT-15 colon, 20 µM; in the experiment on BT-549 breast it was 13.1 µM. Further, the GI50 was 25.7 µM with SF-295 CNS and 30.1 µM with LOX IMVI melanoma. Further, the TGI in the experiment with SN12C renal is 83.5 µM; in the experiment with T-47D breast it was greater than 100 µM; with UACC-257 melanoma it was greater than 100 µM; in the experiment with KM12 colon, 92.8 µM; with HCT-15 colon, 46.3 µM; with BT-549 breast, 45 µM. Further, the TGI in the experiment on SF-295 CNS was 99.1 µM; with LOX IMVI melanoma, greater than 100 µM.
For `CC/C=C\C[C@H](O)C/C=C1/C(=O)C=C[C@@H]1C/C=C\CCCCO`, the GI50 is 2.52 µM in the experiment with SN12C renal; 2.63 µM with T-47D breast; 2.59 µM with UACC-257 melanoma; 2.84 µM in the experiment with KM12 colon; 1.58 µM with HCT-15 colon; 2.46 µM in the experiment with BT-549 breast. Besides, the values for the GI50 in the experiment on SF-295 CNS and in the experiment on LOX IMVI melanoma were 2.39 µM and 1.34 µM, respectively. Further, the TGI in the experiment on SN12C renal stood at 6.53 µM; in the experiment on T-47D breast it was 11.1 µM; in the experiment on UACC-257 melanoma, 9.36 µM; with KM12 colon it was 11.5 µM; in the experiment with HCT-15 colon, 4.57 µM; in the experiment with BT-549 breast, 6.68 µM. For the same compound, the TGI in the experiment on SF-295 CNS came to 6.34 µM; in the experiment with LOX IMVI melanoma, 2.93 µM.
`COc1cc(C2CC(=O)Nc3c2c(C)nn3-c2nc3ccccc3[nH]2)cc(OC)c1O` (stereo not drawn): the GI50 was 3.98 µM in the experiment on SN12C renal; 3.45 µM with T-47D breast; 2.98 µM in the experiment with UACC-257 melanoma; 3.26 µM in the experiment with KM12 colon; 3.69 µM with HCT-15 colon; 2.6 µM with BT-549 breast. Besides, the figures for the GI50 with SF-295 CNS and with LOX IMVI melanoma were 1.33 µM and 3.08 µM, respectively. The TGI with SN12C renal is greater than 72.3 µM; with T-47D breast it was 16.9 µM; with UACC-257 melanoma it was greater than 24.5 µM; with KM12 colon, 12.4 µM; with HCT-15 colon it was greater than 100 µM; in the experiment with BT-549 breast, 6.09 µM. The results for the TGI with SF-295 CNS and in the experiment on LOX IMVI melanoma were 3.71 µM and 10.9 µM, respectively.
Take `COc1ccc(Cn2cc3c(c2-c2cc(OC)c(OC)c(OC)c2)CCc2c(CO)noc2-3)cc1`: the GI50 in the experiment on SN12C renal was 0.765 µM; in the experiment with T-47D breast, 0.376 µM; in the experiment on UACC-257 melanoma it was 16.5 µM; with KM12 colon it was 0.341 µM; with HCT-15 colon, 0.315 µM; in the experiment with BT-549 breast, 0.608 µM. Further, the results for the GI50 with SF-295 CNS and in the experiment with LOX IMVI melanoma were 0.225 µM and 0.615 µM, respectively. The TGI turned out to be 19.2 µM in the experiment with SN12C renal; 59.3 µM in the experiment on T-47D breast; 50.2 µM in the experiment on UACC-257 melanoma; 17.9 µM in the experiment on KM12 colon; 27.1 µM with HCT-15 colon; 7.34 µM in the experiment with BT-549 breast. Moreover, the TGI is 15.2 µM in the experiment on SF-295 CNS and 16.6 µM with LOX IMVI melanoma.
